Source: patent US11465972B2, “Inhibitors of oxidized low-density lipoprotein receptor 1 and methods of use thereof” (United States Government as represented by the Department …, priority 2015, dated 2022)
pIC50: −log10 of the molar value. Values belong to the molecule of their own block, whether it stands above or below them.

Assays:
LOX-1 expression = conditions: cited from earlier work
[1] = tested on: human primary aortic endothelial cells; test: ox-LDL uptake by human primary aortic endothelial cells (flow cytometry); assay type: cell-based; conditions: Endothelial cell, 0, 5, 50, 100, 250, 500 nM
Procedure: FIG. 7A depicts flow cytometry measurements using human primary aortic endothelial cells in the presence of 0, 5, 50 100, 250 and […] of Formula XVI. FIG. 7B depicts the percentage of internalized ox-LDL. The x-axis represents Formula XVI concentration (nM) and the y-axis represents ox-LDL uptake by ECs.
Ox-LDL uptake by human primary aortic endothelial cells was measured after exposure to 0, 5, 50, 100, 250 and 500 nM of the compound of Formula XVI (compound 13 in Table 3) using flow cytometry.

macrophages = conditions: cited from earlier work
[2] = molecular target: CHO cells expressing LOX-1 (Homo sapiens, UniProt P78380); conditions: only at high concentrations; cited from earlier work

Molecule: CC(=O)Oc1ccccc1C(=O)O [aspirin]
ox-LDL mediated LOX-1 expression (LOX-1 expression): reduce ox-LDL mediated LOX-1 expression

pIC50 [1]: 7.57
Molecule: OC(COc1ccccc1)Cn1ccnc1I (stereo not shown) [Formula XVI]

Molecule: CCCCCCCCCCCCCCCCCC(=O)Nc1ccc(S(=O)(=O)O)c(NC(=O)CCCCCCCCCCCCCCCCC)c1 [2,4-bis(octadecanoylamino) benzenesulfonic acid]
LDL binding to macrophages (macrophages): prevented LDL from binding to macrophages

Molecule: procyanidins
ox-LDL uptake in CHO cells expressing LOX-1 [2]: inhibited ox-LDL uptake
